What follows are molecules tested against T1, ALK (baculovirus expressed human ALK kinase domain F1098-K1410) (Homo sapiens, UniProt Q9UM73) (assay: Luciferase-Coupled Chemiluminescent Kinase assay (LCCA), ALK biochemical activity). Conditions: inhibition of ALK; mean values; 1 μM ATP, 4 μM poly-AEKY, 12 nM ALK, 2 hours ambient temperature.
T1 construct: baculovirus expressed human ALK kinase domain F1098-K1410; made in house
Procedure, shortened: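 Luciferase-coupled readout of ATP remaining after reaction of 12 nM ALK kinase domain with 1 μM ATP and 4 μM poly-AEKY, Tris-HCl pH 7.5 buffer with MgCl2 and MnCl2. Incubated 2 h at ambient temperature; inhibition derived from ATP consumption across serial compound dilutions.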

T1 sequence (Q9UM73 1098-1410): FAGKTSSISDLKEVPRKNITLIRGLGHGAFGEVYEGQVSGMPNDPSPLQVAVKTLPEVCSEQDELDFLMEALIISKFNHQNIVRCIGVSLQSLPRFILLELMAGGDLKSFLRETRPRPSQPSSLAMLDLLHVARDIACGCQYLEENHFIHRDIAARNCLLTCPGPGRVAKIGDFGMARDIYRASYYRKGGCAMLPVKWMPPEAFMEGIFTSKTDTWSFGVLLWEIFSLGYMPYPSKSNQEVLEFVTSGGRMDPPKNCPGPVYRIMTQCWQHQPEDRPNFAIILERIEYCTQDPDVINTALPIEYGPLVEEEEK

COc1cc2c(-c3ccc(O)c(Cl)c3)nc3[nH]nc(C)c3c2cc1OCC1CCCCO1 (stereo not drawn) [Example 152, 2-chloro-4-{1-methyl-7-(methyloxy)-8-[(tetrahydro-2H-pyran-2-ylmethyl)oxy]-3H-pyrazolo[3,4-c]isoquinolin-5-yl}phenol] and COc1cc2c(-c3ccc(O)c(Cl)c3)nc3[nH]nc(C)c3c2cc1OCC1CCOCC1 [Example 161, 2-chloro-4-{1-methyl-7-(methyloxy)-8-[(tetrahydro-2H-pyran-4-ylmethyl)oxy]-3H-pyrazolo[3,4-c]isoquinolin-5-yl}phenol] cannot be ordered by IC50: ≤ 99 nM for the first, ≤ 99 nM for the second.

First: COc1cc2c(-c3ccc(O)c(Cl)c3)nc3[nH]nc(C)c3c2cc1OCC(F)(F)F [Example 153, 2-chloro-4-{1-methyl-7-(methyloxy)-8-[(2,2,2-trifluoroethyl)oxy]-3H-pyrazolo[3,4-c]isoquinolin-5-yl}phenol]
Second: CCOCCOc1cc2c(cc1OC)c(-c1ccc(O)c(Cl)c1)nc1[nH]nc(C)c12 [Example 162, 2-chloro-4-[8-{[2-(ethyloxy)ethyl]oxy}-1-methyl-7-(methyloxy)-3H-pyrazolo[3,4-c]isoquinolin-5-yl]phenol]
The IC50 of the first is higher: 100 to 999 nM for the first, ≤ 99 nM for the second.

COc1c(OC)c(F)c2c(c(-c3cc(Cl)c(O)cc3F)nc3[nH]nc(C)c32)c1OC [Example 154, 2-chloro-5-fluoro-4-[9-fluoro-1-methyl-6,7,8-tris(methyloxy)-3H-pyrazolo[3,4-c]isoquinolin-5-yl]phenol] and Cc1n[nH]c2nc(-c3cc(Cl)c(O)cc3F)c3c(F)c4c(c(F)c3c12)OCCO4 [Example 158, 2-chloro-4-(6,11-difluoro-1-methyl-8,9-dihydro-3H-[1,4]dioxino[2,3-g]pyrazolo[3,4-c]isoquinolin-5-yl)-5-fluorophenol] cannot be ordered by IC50: ≤ 99 nM for the first, ≤ 99 nM for the second.

Cc1n[nH]c2nc(-c3ccc(O)c(Cl)c3)c3c(F)cc(O)c(F)c3c12 [Example 155, 5-(3-chloro-4-hydroxyphenyl)-6,9-difluoro-1-methyl-3H-pyrazolo[3,4-c]isoquinolin-8-ol] and Cc1n[nH]c2nc(-c3ccc(O)c(Cl)c3)c3c(F)cc(OC(F)F)c(F)c3c12 [Example 157, 2-chloro-4-{8-[(difluoromethyl)oxy]-6,9-difluoro-1-methyl-3H-pyrazolo[3,4-c]isoquinolin-5-yl}phenol] cannot be ordered by IC50: ≤ 99 nM for the first, ≤ 99 nM for the second.

First: COCCOc1cc(F)c2c(-c3ccccc3F)nc3[nH]nc(C)c3c2c1F [Example 156, 6,9-difluoro-5-(2-fluorophenyl)-1-methyl-8-{[2-(methyloxy)ethyl]oxy}-3H-pyrazolo[3,4-c]isoquinoline]
Second: Cc1n[nH]c2nc(-c3ccccc3F)c3c(F)cc4c(c3c12)OCCO4 [Example 160, 6-fluoro-7-(2-fluorophenyl)-11-methyl-2,3-dihydro-9H-[1,4]dioxino[2,3-f]pyrazolo[3,4-c]isoquinoline]
The IC50 of the first is higher: > 2000 nM for the first, 100 to 999 nM for the second.

Compared with Cc1n[nH]c2cc(-c3ccc(O)cc3)c3ccccc3c12 [Example 159, 4-(1-methyl-3H-benzo[e]indazol-5-yl)phenol], CCc1c(OC)ccc2c(-c3ccc(O)c(Cl)c3)nc3[nH]nc(C)c3c12 [Example 168, 2-chloro-4-[9-ethyl-1-methyl-8-(methyloxy)-3H-pyrazolo[3,4-c]isoquinolin-5-yl]phenol] is lower in IC50: 100 to 999 nM for the first, ≤ 99 nM for the second. The second is the more potent here.

Cc1n[nH]c2nc(-c3ccc(O)cc3F)c3c(F)cc4c(c3c12)OCCO4 [Example 164, 3-fluoro-4-(6-fluoro-11-methyl-2,3-dihydro-9H-[1,4]dioxino[2,3-f]pyrazolo[3,4-c]isoquinolin-7-yl)phenol] and Cc1n[nH]c2nc(-c3cc(Cl)c(O)cc3F)c3c(F)cc4c(c3c12)OCCO4 [Example 165, 2-chloro-5-fluoro-4-(6-fluoro-11-methyl-2,3-dihydro-9H-[1,4]dioxino[2,3-f]pyrazolo[3,4-c]isoquinolin-7-yl)phenol] cannot be ordered by IC50: ≤ 99 nM for the first, ≤ 99 nM for the second.

COc1cc2c(-c3ccc(O)c(Cl)c3)nc3[nH]nc(C)c3c2cc1OC1CCCC1 [Example 166, 2-chloro-4-[8-(cyclopentyloxy)-1-methyl-7-(methyloxy)-3H-pyrazolo[3,4-c]isoquinolin-5-yl]phenol] and COCCOc1cc2c(cc1C(C)C)c(-c1ccc(O)c(Cl)c1)nc1[nH]nc(C)c12 [Example 167, 2-chloro-4-(1-methyl-7-(1-methylethyl)-8-{[2-(methyloxy)ethyl]oxy}-3H-pyrazolo[3,4-c]isoquinolin-5-yl)phenol] cannot be ordered by IC50: ≤ 99 nM for the first, ≤ 99 nM for the second.

Cc1n[nH]c2nc(-c3ccc(O)c(Cl)c3)c3c(F)cc(OCC4CCN(C)CC4)c(F)c3c12 [Example 169, 2-chloro-4-(6,9-difluoro-1-methyl-8-{[(1-methylpiperidin-4-yl)methyl]oxy}-3H-pyrazolo[3,4-c]isoquinolin-5-yl)phenol] and COc1c(OCC2CCN(C)CC2)cc(F)c2c(-c3ccc(O)c(Cl)c3)nc3[nH]nc(C)c3c12 [Example 182, 2-chloro-4-(6-fluoro-1-methyl-9-(methyloxy)-8-{[(1-methylpiperidin-4-yl)methyl]oxy}-3H-pyrazolo[3,4-c]isoquinolin-5-yl)phenol] cannot be ordered by IC50: ≤ 99 nM for the first, ≤ 99 nM for the second.

Going from COc1c(F)cc2c(c(-c3ccc(O)c(Cl)c3)nc3[nH]nc(C)c32)c1O [Example 170, 5-(3-chloro-4-hydroxyphenyl)-8-fluoro-1-methyl-7-(methyloxy)-3H-pyrazolo[3,4-c]isoquinolin-6-ol] to COc1ccc(-c2nc3[nH]nc(C)c3c3cc(F)c(OC)c(O)c23)cc1Cl [Example 174, 5-[3-chloro-4-(methyloxy)phenyl]-8-fluoro-1-methyl-7-(methyloxy)-3H-pyrazolo[3,4-c]isoquinolin-6-ol], the IC50 rises from ≤ 99 nM to > 2000 nM. The first is the more potent here.

First: COc1c(OCC2CCN(C)CC2)cc2c(c(-c3ccc(O)c(Cl)c3)nc3[nH]nc(C)c32)c1F [Example 171, 2-chloro-4-(6-fluoro-1-methyl-7-(methyloxy)-8-{[(1-methylpiperidin-4-yl)methyl]oxy}-3H-pyrazolo[3,4-c]isoquinolin-5-yl)phenol]
Second: COc1ccc(-c2nc3[nH]nc(C)c3c3cc(OCC4CCN(C)CC4)c(OC)c(F)c23)cc1Cl [Example 173, 5-[3-chloro-4-(methyloxy)phenyl]-6-fluoro-1-methyl-7-(methyloxy)-8-{[(1-methylpiperidin-4-yl)methyl]oxy}-3H-pyrazolo[3,4-c]isoquinoline]
The IC50 of the first is lower: ≤ 99 nM for the first, 1000 to 2000 nM for the second.

COCCOc1cc(F)c2c(-c3ccc(O)c(Cl)c3)nc3[nH]nc(C)c3c2c1OCCOC [Example 172, 2-chloro-4-(6-fluoro-1-methyl-8,9-bis{[2-(methyloxy)ethyl]oxy}-3H-pyrazolo[3,4-c]isoquinolin-5-yl)phenol] and COCCOc1cc2c(c(-c3ccc(O)c(Cl)c3)nc3[nH]nc(C)c32)c(F)c1OC [Example 179, 2-chloro-4-(6-fluoro-1-methyl-7-(methyloxy)-8-{[2-(methyloxy)ethyl]oxy}-3H-pyrazolo[3,4-c]isoquinolin-5-yl)phenol] cannot be ordered by IC50: ≤ 99 nM for the first, ≤ 99 nM for the second.

COc1c(OCCN2CCCCC2)cc2c(c(-c3ccc(O)c(Cl)c3)nc3[nH]nc(C)c32)c1F [Example 176, 2-chloro-4-{6-fluoro-1-methyl-7-(methyloxy)-8-[(2-piperidin-1-ylethyl)oxy]-3H-pyrazolo[3,4-c]isoquinolin-5-yl}phenol] and CCN1CCN(CCOc2cc3c(c(-c4ccc(O)c(Cl)c4)nc4[nH]nc(C)c43)c(F)c2OC)CC1 [Example 177, 2-chloro-4-[8-{[2-(4-ethylpiperazin-1-yl)ethyl]oxy}-6-fluoro-1-methyl-7-(methyloxy)-3H-pyrazolo[3,4-c]isoquinolin-5-yl]phenol] cannot be ordered by IC50: ≤ 99 nM for the first, ≤ 99 nM for the second.

CCN(CC)CCOc1cc2c(c(-c3ccc(O)c(Cl)c3)nc3[nH]nc(C)c32)c(F)c1OC [Example 178, 2-chloro-4-[8-{[2-(diethylamino)ethyl]oxy}-6-fluoro-1-methyl-7-(methyloxy)-3H-pyrazolo[3,4-c]isoquinolin-5-yl]phenol] and CCN(CC)CCOc1cc(F)c2c(-c3ccc(O)c(Cl)c3)nc3[nH]nc(C)c3c2c1F [Example 188, 2-chloro-4-(8-{[2-(diethylamino)ethyl]oxy}-6,9-difluoro-1-methyl-3H-pyrazolo[3,4-c]isoquinolin-5-yl)phenol] cannot be ordered by IC50: ≤ 99 nM for the first, ≤ 99 nM for the second.

COc1c(OCC2CCN(C)CC2)cc(F)c2c(-c3ccc(O)c(Br)c3)nc3[nH]nc(C)c3c12 [Example 183, 2-bromo-4-(6-fluoro-1-methyl-9-(methyloxy)-8-{[(1-methylpiperidin-4-yl)methyl]oxy}-3H-pyrazolo[3,4-c]isoquinolin-5-yl)phenol] and COc1c(OCC2CCN(C)CC2)cc(F)c2c(-c3ccc(O)c(C)c3)nc3[nH]nc(C)c3c12 [Example 185, 4-(6-fluoro-1-methyl-9-(methyloxy)-8-{[(1-methylpiperidin-4-yl)methyl]oxy}-3H-pyrazolo[3,4-c]isoquinolin-5-yl)-2-methylphenol] cannot be ordered by IC50: ≤ 99 nM for the first, ≤ 99 nM for the second.

COc1c(OCC2CCN(C)CC2)cc(F)c2c(-c3cc(Cl)c(O)cc3F)nc3[nH]nc(C)c3c12 [Example 184, 2-chloro-5-fluoro-4-(6-fluoro-1-methyl-9-(methyloxy)-8-{[(1-methylpiperidin-4-yl)methyl]oxy}-3H-pyrazolo[3,4-c]isoquinolin-5-yl)phenol] and Cc1n[nH]c2nc(-c3ccc(O)c(Cl)c3)c3c(F)cc(OCCN4CCCCC4)c(F)c3c12 [Example 186, 2-chloro-4-{6,9-difluoro-1-methyl-8-[(2-piperidin-1-ylethyl)oxy]-3H-pyrazolo[3,4-c]isoquinolin-5-yl}phenol] cannot be ordered by IC50: ≤ 99 nM for the first, ≤ 99 nM for the second.

For CCN1CCN(CCOc2cc(F)c3c(-c4ccc(O)c(Cl)c4)nc4[nH]nc(C)c4c3c2F)CC1 [Example 187, 2-chloro-4-(8-{[2-(4-ethylpiperazin-1-yl)ethyl]oxy}-6,9-difluoro-1-methyl-3H-pyrazolo[3,4-c]isoquinolin-5-yl)phenol], the IC50 was ≤ 99 nM.
